The results in this text go back to patent publication US20050197350A1, “Novel quinoline, tetrahydroquinazoline, and pyrimidine derivatives and methods of treatment related to the use thereof” (TAISHO PHARMACEUTICAL CO., LTD., priority 2003, published 2005).

The test system of the experiment is MCH receptors. Description: MCH receptor activity class (method not given).
[1] abbreviates: class by percent of control at 10^-7 M or IC50.
[2] abbreviates: activity class 1-3: percent of control at 10^-7 M or IC50.
Setting [3] is: activity class per percent of control at 10^-7 M or IC50.
The mark [4] stands for this setting: MCH receptor, class by percent of control at 10^-7 M or IC50.

Take `CN(C)c1cc(N[C@H]2CC[C@@H](NC(=O)c3cc(Cl)ccc3O)CC2)nc2ccccc12` [compound 780, 5-chloro-N-(cis-4-{[4-(dimethylamino)quinolin-2-yl]amino}cyclohexyl)-2-hydroxybenzamide]: the class under setting [1] is listed as 2 (Class 2: The value of percent of control at 10^−7 M was from 40% to 60% or the value of IC′50 was from 50 nM to 200 nM.).

Consider `CN(C)c1nc(N[C@H]2CC[C@@H](CNC(=O)OCC(Cl)(Cl)Cl)CC2)nc2c1CCCC2` [compound 1618], for which the class under setting [2] was 3 (Class 3 The value of percent of control at 10^−7 M was more than 60% or the value of IC50 was more than 200 nM.).

`COC(=O)c1scc(C)c1NC(=S)N[C@H]1CC[C@@H](Nc2nc3c(c(N(C)C)n2)CCCC3)CC1` [compound 1791]: under setting [1], the class is 3 (Class 3 The value of percent of control at 10^−7 M was more than 60% or the value of IC50 was more than 200 nM.).

In the case of `CN(C)c1nc(N[C@H]2CC[C@@H](NC(=O)c3ccc(Br)s3)CC2)nc2c1CCCC2` [compound 949], the class under setting [1] is reported as 2 (Class 2: The value of percent of control at 10^−7 M was from 40% to 60% or the value of IC′50 was from 50 nM to 200 nM.).

Consider `CN(C)c1ccnc(N[C@H]2CC[C@@H](CNC(=O)Cc3cccs3)CC2)n1` [compound 398], for which the class under setting [1] is reported as 3 (Class 3 The value of percent of control at 10^−7 M was more than 60% or the value of IC50 was more than 200 nM.).

With `C[C@@H](CNC[C@H]1CC[C@@H](Nc2nc3c(c(N(C)C)n2)CCCC3)CC1)N(Cc1ccccc1)Cc1ccccc1` [compound 1509], the class under setting [1] is listed as 3 (Class 3 The value of percent of control at 10^−7 M was more than 60% or the value of IC50 was more than 200 nM.).

With `CN(C)c1nc(N[C@H]2CC[C@@H](NC(=O)c3ccccc3)CC2)nc2c1CCCC2` [compound 529, N-(cis-4-{[4-(dimethylamino)-5,6,7,8-tetrahydroquinazolin-2-yl]amino}cyclohexyl)benzamide], the class (class 1-3 by percent of control at 10^-7 M or IC50) is recorded as 2 (Class 2: The value of percent of control at 10^−7 M was from 40% to 60% or the value of IC′50 was from 50 nM to 200 nM.).

On to `COc1cc([N+](=O)[O-])ccc1C(=O)N[C@H]1CC[C@@H](Nc2nc3c(c(N(C)C)n2)CCCC3)CC1` [compound 1047], for which, under setting [3], the class is listed as 2 (Class 2: The value of percent of control at 10^−7 M was from 40% to 60% or the value of IC′50 was from 50 nM to 200 nM.).

Turning to `CN(C)c1nc(N[C@H]2CC[C@@H](NC(=S)Nc3ccc([N+](=O)[O-])cc3Cl)CC2)nc2c1CCCC2` [compound 1975], under setting [4], the class is on record as 3 (Class 3 The value of percent of control at 10^−7 M was more than 60% or the value of IC50 was more than 200 nM.).

Take `Cc1c(C(=O)N[C@H]2CC[C@@H](Nc3nc4c(c(N(C)C)n3)CCCC4)CC2)cc(-c2ccccc2)n1CCCN1CCOCC1` [compound 1000]: the class under setting [3] is given as 1 (Class 1: The value of percent of control at 10^−7 M was less than 40% or the value of IC50 was less than 50 nM.).

Take `CCOc1ccccc1CN[C@H]1CC[C@@H](Nc2cc(N(C)C)c3ccccc3n2)CC1` [compound 1086]: under setting [3], the class is listed as 3 (Class 3 The value of percent of control at 10^−7 M was more than 60% or the value of IC50 was more than 200 nM.).

In the case of `CCOc1ccc(Br)cc1CNC[C@H]1CC[C@@H](Nc2nccc(N(C)C)n2)CC1` [compound 1287], the class under setting [1] is 1 (Class 1: The value of percent of control at 10^−7 M was less than 40% or the value of IC50 was less than 50 nM.).

As for `CC(=O)c1cccc(C(=O)N[C@H]2CC[C@@H](Nc3nc4c(c(N(C)C)n3)CCCC4)CC2)c1` [compound 968], the class under setting [1] is listed as 1 (Class 1: The value of percent of control at 10^−7 M was less than 40% or the value of IC50 was less than 50 nM.).

In the case of `CCOC(=O)[C@H](Cc1ccccc1)NC(=O)N[C@H]1CC[C@@H](Nc2nccc(N(C)C)n2)CC1` (relative stereo) [compound 2250], the class under setting [1] is 3 (Class 3 The value of percent of control at 10^−7 M was more than 60% or the value of IC50 was more than 200 nM.).

As for `CN(C)c1cc(N[C@H]2CC[C@@H](CNC(=O)c3ccccc3Cc3ccccc3)CC2)nc2ccccc12` [compound 799], the class under setting [1] is 3 (Class 3 The value of percent of control at 10^−7 M was more than 60% or the value of IC50 was more than 200 nM.).

On to `CCCCCCCCOC(=O)N[C@H]1CC[C@@H](Nc2nc3c(c(N(C)C)n2)CCCC3)CC1` [compound 1586], for which the class under setting [2] is reported as 3 (Class 3 The value of percent of control at 10^−7 M was more than 60% or the value of IC50 was more than 200 nM.).

As for `COc1ccc(CNC[C@H]2CC[C@@H](Nc3nc4c(c(N(C)C)n3)CCCC4)CC2)c(OC)c1` [compound 1373], the class under setting [1] is recorded as 3 (Class 3 The value of percent of control at 10^−7 M was more than 60% or the value of IC50 was more than 200 nM.).

Take `CN(C)c1nc(N[C@H]2CC[C@@H](CNC(=O)CSc3ccccc3)CC2)nc2c1CCCC2` [compound 625]: under setting [1], the class was 3 (Class 3 The value of percent of control at 10^−7 M was more than 60% or the value of IC50 was more than 200 nM.).

As to `CN(C)c1cc(N[C@H]2CC[C@@H](CNC(=O)C(c3ccccc3)c3ccccc3)CC2)nc2ccccc12` [compound 159, N-[(cis-4-{[4-(dimethylamino)quinolin-2-yl]amino}cyclohexyl)methyl]-2,2-diphenylacetamide], the class under setting [4] is recorded as 2 (Class 2: The value of percent of control at 10^−7 M was from 40% to 60% or the value of IC′50 was from 50 nM to 200 nM.).

Regarding `CN(C)c1cc(N[C@H]2CC[C@@H](CNC(=O)c3ccc(I)cc3)CC2)nc2ccccc12` [compound 168], the class under setting [4] was 3 (Class 3 The value of percent of control at 10^−7 M was more than 60% or the value of IC50 was more than 200 nM.).

Regarding `Cc1cnc(NC[C@H]2CC[C@@H](NC(=O)c3ccc(C#N)cc3)CC2)nc1N(C)C` [compound 2723], the class (class by percent of control at 10^−7 M or IC50) was 3 (Class 3 The value of percent of control at 10^−7 M was more than 60% or the value of IC50 was more than 200 nM.).

Regarding `CN(C)c1ccnc(N[C@H]2CC[C@@H](NC(=O)c3ccccc3CCc3ccccc3)CC2)n1` [compound 872], the class under setting [1] is on record as 3 (Class 3 The value of percent of control at 10^−7 M was more than 60% or the value of IC50 was more than 200 nM.).

As to `COc1ccc(CNC[C@H]2CC[C@@H](Nc3cc(N(C)C)c4ccccc4n3)CC2)cc1C` [compound 1190], the class under setting [1] is recorded as 3 (Class 3 The value of percent of control at 10^−7 M was more than 60% or the value of IC50 was more than 200 nM.).

As to `CN(C)c1ccnc(N[C@H]2CC[C@@H](CNCc3c[nH]nc3-c3ccc(C(F)(F)F)cc3)CC2)n1` [compound 1256], the class under setting [1] was 1 (Class 1: The value of percent of control at 10^−7 M was less than 40% or the value of IC50 was less than 50 nM.).

With `CN(C)c1nc(N[C@H]2CC[C@@H](NC(=S)Nc3ccccc3I)CC2)nc2c1CCCC2` [compound 1979], under setting [4], the class is on record as 3 (Class 3 The value of percent of control at 10^−7 M was more than 60% or the value of IC50 was more than 200 nM.).

For the compound `C[C@@H](CNC[C@H]1CC[C@@H](Nc2nccc(N(C)C)n2)CC1)N(Cc1ccccc1)Cc1ccccc1` [compound 1538], the class under setting [2] is 3 (Class 3 The value of percent of control at 10^−7 M was more than 60% or the value of IC50 was more than 200 nM.).

Consider `Cc1cc(C)c(C(=O)C(=O)N[C@H]2CC[C@@H](Nc3nccc(N(C)C)n3)CC2)c(C)c1` [compound 914, N-(cis-4-{[4-(dimethylamino)pyrimidin-2-yl]amino}cyclohexyl)-2-mesityl-2-oxoacetamide], for which the class under setting [1] is 2 (Class 2: The value of percent of control at 10^−7 M was from 40% to 60% or the value of IC′50 was from 50 nM to 200 nM.).
